What was measured:
Type in all cases: biochemical
Settings in all cases: 10 concentrations, 3-fold dilution
[1] = biological target: T1, wild type (WT) MET kinase (Homo sapiens, UniProt P08581); experiment: Kinase inhibition experiment (HTRF KinEASE-TK kit), wild-type MET
T1 construct: purchased Carna 08-151
Experimental: (§1) The activity of the compounds was determined by detecting the residual amount of ATP after reacting with wild-type or mutant MET protein kinase by using an HTRF KinEASE-TK kit. […]
(§2) The compounds were determined on the selected kinase, the solvent control was set and a total of 10 concentrations were detected, diluted 3-fold, 2 replicates per concentration.
(§3) 1 volume of 5× kinase reaction buffer and 4 volumes of water; 5 mM MgCl2; 1 mM DTT; 1 mM MnCl2; or 2500 nm SEB.
(§4) 1) 10 nl or 4 μlof the diluted compound was transferred to each well of the reaction plate (784075 or 264706, Greiner or Thermo) with a pipette, the reaction plate was sealed with a sealing plate, and centrifuged at 1000 for 1 minute.
(§5) 2) 2× MET was prepared from 1× enzyme reaction buffer, 5 μl or 2 μl kinase was added to each well of the reaction plate, the reaction plate was sealed with a sealing plate, centrifuged at 1000 g for 30 seconds and incubated at room temperature for 10 min.
(§6) 3) a mixed solution of 2× TK-substrate-biotin and ATP were prepared from 1× enzyme reaction buffer solution, 5 μl or 2 μl TK-substrate-biotin/ATP of the mixed solution was added into a reaction plate, the reaction plate was sealed with a sealing plate, centrifuged at 1000 g for 30 seconds and reacted for 50 minutes or 10 minutes at room temperature.
(§7) 4) a mixed solution of 4× or 2× Sa-XL 665 and TK-antibody-Cryptate were prepared from HTRF detection buffer, 5 or 10 μl of the mixed solution of Sa-XL 665 and TK-antibody-Cryptate was added into each well, centrifuged at 1000 g for 30 seconds, and reacted at room temperature for 1 h.
(§8) 5) the fluorescence signals at 615 nm (cryptate) and 665 nm (XL665) were read with Envision 2104 or TECAN.
(§9) The data was analyzed using GraphPad Prism 6.0 or 7 software, and the dose-response curve was fitted with nonlinear S-curve regression, and the IC50 value was calculated therefrom.
(§10) Enzyme Inhibition Percent (%)=100-(Signalmpd-SignalAve_PC)/(SignalAve_VC-SignalAve_PC)×100

[2] = biological target: T2, MET D1228N (Homo sapiens, UniProt P08581, D1228N); experiment: Kinase inhibition experiment (HTRF KinEASE-TK kit), mutant MET D1228N
T2 construct: purchased Signalchem M52-12IG
Experimental: as §1, §2, §3, §4, §5, §6, §7, §8, §9, §10

[3] = biological target: T3, MET F1200I (Homo sapiens, UniProt P08581, F1200I); experiment: Kinase inhibition experiment (HTRF KinEASE-TK kit), mutant MET F1200I
T3 construct: purchased Signalchem M52-12GG/Y767-2
Experimental: as §1, §2, §3, §4, §5, §6, §7, §8, §9, §10

T3 sequence (P08581 25-1390 F1200I): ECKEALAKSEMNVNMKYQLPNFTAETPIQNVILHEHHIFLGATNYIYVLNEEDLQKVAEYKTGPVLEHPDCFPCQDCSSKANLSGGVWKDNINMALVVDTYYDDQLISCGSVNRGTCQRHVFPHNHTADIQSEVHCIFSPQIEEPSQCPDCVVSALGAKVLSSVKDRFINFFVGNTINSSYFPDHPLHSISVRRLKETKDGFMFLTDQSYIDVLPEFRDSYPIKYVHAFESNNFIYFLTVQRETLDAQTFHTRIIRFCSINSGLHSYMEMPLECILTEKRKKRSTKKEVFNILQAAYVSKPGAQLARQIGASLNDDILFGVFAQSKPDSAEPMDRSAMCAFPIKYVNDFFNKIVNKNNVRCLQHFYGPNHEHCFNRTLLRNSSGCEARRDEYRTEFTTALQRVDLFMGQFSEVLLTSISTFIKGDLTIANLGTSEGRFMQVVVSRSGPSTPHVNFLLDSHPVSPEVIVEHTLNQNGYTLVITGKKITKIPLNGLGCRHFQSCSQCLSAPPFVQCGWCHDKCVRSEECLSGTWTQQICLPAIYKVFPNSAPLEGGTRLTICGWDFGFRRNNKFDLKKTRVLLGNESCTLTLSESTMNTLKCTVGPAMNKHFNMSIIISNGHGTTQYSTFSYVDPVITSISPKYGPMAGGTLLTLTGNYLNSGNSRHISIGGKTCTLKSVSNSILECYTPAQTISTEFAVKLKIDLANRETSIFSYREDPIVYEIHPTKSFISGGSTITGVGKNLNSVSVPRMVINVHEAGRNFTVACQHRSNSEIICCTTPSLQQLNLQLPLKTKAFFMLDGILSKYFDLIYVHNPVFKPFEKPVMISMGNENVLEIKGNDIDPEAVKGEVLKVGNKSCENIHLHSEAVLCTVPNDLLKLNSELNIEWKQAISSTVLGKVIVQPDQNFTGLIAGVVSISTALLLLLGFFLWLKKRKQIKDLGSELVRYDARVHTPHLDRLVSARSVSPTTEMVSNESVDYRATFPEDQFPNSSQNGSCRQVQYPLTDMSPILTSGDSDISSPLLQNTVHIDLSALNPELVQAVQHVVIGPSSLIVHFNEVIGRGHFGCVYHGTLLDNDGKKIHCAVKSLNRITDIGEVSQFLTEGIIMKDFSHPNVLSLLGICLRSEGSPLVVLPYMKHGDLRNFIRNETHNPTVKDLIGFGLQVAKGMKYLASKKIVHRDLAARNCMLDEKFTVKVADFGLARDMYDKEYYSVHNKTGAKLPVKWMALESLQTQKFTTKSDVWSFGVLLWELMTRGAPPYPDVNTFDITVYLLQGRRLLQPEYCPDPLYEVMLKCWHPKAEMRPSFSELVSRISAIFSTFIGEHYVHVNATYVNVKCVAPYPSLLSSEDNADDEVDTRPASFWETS
T2 sequence (P08581 25-1390 D1228N): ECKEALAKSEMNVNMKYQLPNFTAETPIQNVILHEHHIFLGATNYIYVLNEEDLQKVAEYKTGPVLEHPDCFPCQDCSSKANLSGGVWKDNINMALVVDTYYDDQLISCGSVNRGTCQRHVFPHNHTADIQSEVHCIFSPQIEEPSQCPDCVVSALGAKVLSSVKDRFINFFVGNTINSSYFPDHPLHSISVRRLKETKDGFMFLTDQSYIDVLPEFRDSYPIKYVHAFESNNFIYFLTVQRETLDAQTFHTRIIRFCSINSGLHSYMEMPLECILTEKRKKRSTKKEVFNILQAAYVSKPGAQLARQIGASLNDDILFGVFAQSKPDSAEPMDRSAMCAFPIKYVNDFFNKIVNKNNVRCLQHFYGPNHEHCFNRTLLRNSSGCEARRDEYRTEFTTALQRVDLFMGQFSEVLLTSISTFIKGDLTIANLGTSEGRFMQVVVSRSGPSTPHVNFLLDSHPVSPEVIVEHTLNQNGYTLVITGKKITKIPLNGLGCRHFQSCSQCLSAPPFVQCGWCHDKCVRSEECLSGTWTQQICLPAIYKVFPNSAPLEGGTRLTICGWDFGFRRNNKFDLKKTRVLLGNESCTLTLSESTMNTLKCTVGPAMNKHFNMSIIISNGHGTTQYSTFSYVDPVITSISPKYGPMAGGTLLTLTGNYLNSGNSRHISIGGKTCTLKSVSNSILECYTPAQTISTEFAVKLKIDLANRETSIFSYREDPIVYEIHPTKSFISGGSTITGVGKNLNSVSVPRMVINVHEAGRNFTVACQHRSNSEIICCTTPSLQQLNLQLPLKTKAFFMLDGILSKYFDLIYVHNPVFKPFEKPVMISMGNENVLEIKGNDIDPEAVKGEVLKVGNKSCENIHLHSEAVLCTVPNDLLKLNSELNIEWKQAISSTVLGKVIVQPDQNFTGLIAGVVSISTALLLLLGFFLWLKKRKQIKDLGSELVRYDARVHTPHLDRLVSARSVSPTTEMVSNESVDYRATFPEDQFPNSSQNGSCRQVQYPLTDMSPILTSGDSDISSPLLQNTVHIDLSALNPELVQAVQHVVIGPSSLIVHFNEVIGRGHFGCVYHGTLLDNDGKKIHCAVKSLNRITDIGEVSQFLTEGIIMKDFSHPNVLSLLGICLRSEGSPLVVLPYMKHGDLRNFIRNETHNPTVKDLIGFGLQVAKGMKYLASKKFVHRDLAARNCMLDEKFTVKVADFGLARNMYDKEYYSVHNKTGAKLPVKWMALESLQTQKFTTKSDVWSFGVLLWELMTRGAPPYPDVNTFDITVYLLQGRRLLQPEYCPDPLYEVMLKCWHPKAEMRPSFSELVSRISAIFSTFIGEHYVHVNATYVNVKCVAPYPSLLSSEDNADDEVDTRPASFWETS
T1 sequence (P08581 25-1390): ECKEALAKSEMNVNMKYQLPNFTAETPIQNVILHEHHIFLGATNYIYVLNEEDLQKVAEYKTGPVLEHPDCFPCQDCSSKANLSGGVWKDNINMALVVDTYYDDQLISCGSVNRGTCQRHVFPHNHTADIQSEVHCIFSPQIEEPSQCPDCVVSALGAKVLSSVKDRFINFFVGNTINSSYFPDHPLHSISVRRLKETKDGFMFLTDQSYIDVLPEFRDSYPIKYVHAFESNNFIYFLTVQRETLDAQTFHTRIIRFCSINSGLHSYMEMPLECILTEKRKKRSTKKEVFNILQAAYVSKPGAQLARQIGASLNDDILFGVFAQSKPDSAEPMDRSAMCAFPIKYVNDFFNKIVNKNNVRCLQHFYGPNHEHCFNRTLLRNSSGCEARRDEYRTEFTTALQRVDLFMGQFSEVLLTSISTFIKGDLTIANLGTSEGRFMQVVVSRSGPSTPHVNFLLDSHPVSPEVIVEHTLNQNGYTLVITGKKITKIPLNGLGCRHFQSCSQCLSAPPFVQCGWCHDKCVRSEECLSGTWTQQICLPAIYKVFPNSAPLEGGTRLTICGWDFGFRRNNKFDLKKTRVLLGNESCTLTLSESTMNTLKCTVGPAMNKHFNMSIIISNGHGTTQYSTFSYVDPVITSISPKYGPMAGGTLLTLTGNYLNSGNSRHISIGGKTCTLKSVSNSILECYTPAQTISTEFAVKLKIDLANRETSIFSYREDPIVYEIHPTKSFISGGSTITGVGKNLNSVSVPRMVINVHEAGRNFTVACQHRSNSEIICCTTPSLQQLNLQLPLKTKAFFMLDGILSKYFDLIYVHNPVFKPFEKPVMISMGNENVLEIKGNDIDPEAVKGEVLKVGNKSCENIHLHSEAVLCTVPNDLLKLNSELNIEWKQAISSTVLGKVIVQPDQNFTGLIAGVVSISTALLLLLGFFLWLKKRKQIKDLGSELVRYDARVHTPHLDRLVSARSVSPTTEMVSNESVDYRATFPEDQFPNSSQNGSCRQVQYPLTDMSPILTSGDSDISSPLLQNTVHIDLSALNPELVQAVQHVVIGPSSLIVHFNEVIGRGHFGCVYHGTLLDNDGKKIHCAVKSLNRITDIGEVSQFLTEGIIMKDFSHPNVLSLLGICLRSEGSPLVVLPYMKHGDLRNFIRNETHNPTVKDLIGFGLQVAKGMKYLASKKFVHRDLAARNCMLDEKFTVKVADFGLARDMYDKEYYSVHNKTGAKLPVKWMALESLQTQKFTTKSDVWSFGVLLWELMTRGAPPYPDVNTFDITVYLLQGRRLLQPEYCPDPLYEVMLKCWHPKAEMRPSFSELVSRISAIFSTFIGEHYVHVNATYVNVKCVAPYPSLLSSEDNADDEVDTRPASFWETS

IC50 [1] [nM]	IC50 [2] [nM]	IC50 [3] [nM]	Structure (SMILES)
2.7	18.8	12.3	O=C(Nc1ccc(Oc2ccnc3[nH]nc(N4CCO[C@@H](CO)C4)c23)c(F)c1)c1cccc(-c2ccc(F)cc2)[n+]1[O-] [Final product 34]
2	14.7	17.9	O=C(Nc1ccc(Oc2ccnc3[nH]nc(N4CCO[C@H](CO)C4)c23)c(F)c1)c1cccc(-c2ccc(F)cc2)[n+]1[O-] [Final product 35]
1.4	36.2	14.2	C[C@H](CO)Nc1n[nH]c2nccc(Oc3ccc(NC(=O)c4cccc(-c5ccc(Cl)cc5)[n+]4[O-])cc3F)c12 [Final product 42]
5	17.7	14.4	C[C@H](CO)Nc1n[nH]c2nccc(Oc3ccc(NC(=O)c4ccc(F)c(-c5ccc(Cl)cc5)[n+]4[O-])cc3F)c12 [Final product 56]
12.7	20.3	7.9	CC[C@@H](CO)Nc1n[nH]c2nccc(Oc3ccc(NC(=O)c4ccc(Cl)c(-c5ccc(F)cc5)[n+]4[O-])cc3F)c12 [Final product 59]
10.8	37.4	42.4	C[C@H](CO)Nc1n[nH]c2nccc(Oc3ccc(NC(=O)c4ccc(Cl)c(-c5ccc(Cl)cc5)[n+]4[O-])cc3F)c12 [Final product 65]
2.7	11	35.5	C[C@H](CO)Nc1n[nH]c2nccc(Oc3ccc(NC(=O)c4ccc(Cl)c(-c5ccc(F)cc5Cl)[n+]4[O-])cc3F)c12 [Final product 66]
10.4	32.8	26	C[C@H](CO)Nc1n[nH]c2nccc(Oc3ccc(NC(=O)c4ccc(C5CC5)c(-c5ccc(F)cc5)[n+]4[O-])cc3F)c12 [Final product 81]
17.4	48.1	29.6	C[C@H](CO)Nc1n[nH]c2nccc(Oc3ccc(NC(=O)c4ccc(C(F)(F)F)c(-c5ccc(F)cc5)[n+]4[O-])cc3F)c12 [Final product 82]
3.2	30.4	6.2	C[C@H](CO)Nc1n[nH]c2nccc(Oc3ccc(NC(=O)c4ccc(C#N)c(-c5ccc(F)cc5)[n+]4[O-])cc3F)c12 [Final product 83]
6.4	10.2	29.7	CSc1ccc(C(=O)Nc2ccc(Oc3ccnc4[nH]nc(N[C@H](C)CO)c34)c(F)c2)[n+]([O-])c1-c1ccc(F)cc1 [Final product 86]
5.3	20.6	23	C[C@H](CO)Nc1n[nH]c2nccc(Oc3ccc(NC(=O)c4ccc(S(C)(=O)=O)c(-c5ccc(F)cc5)[n+]4[O-])cc3F)c12 [Final product 87]
5.3	16.4	17.6	C[C@H](CO)Nc1n[nH]c2nccc(Oc3ccc(NC(=O)c4ccc(N(C)C)c(-c5ccc(F)cc5)[n+]4[O-])cc3F)c12 [Final product 89]
2.2	14.1	4.5	C[C@H](CO)Nc1n[nH]c2nccc(Oc3ccc(NC(=O)c4ccnc(-c5ccc(F)cc5)[n+]4[O-])cc3F)c12 [Final product 96]
1	6.3	2.1	CC(O)C(CO)CNc1n[nH]c2nccc(Oc3ccc(NC(=O)c4cccc(-c5ccc(F)cc5)[n+]4[O-])cc3Cl)c12 (stereo not drawn) [Final product 102]
3.3	22.5	9.2	O=C(Nc1ccc(Oc2ccnc3[nH]nc(NC4CC(CO)C4)c23)c(Cl)c1)c1cccc(-c2ccc(F)cc2)[n+]1[O-] (stereo not drawn) [Final product 113]

IC50 [1] [nM]	IC50 [2] [nM]	IC50 [3] [nM]	Structure (SMILES)
5.1	18.7	10.7	O=C(Nc1ccc(Oc2ccnc3[nH]nc(N[C@H]4CC[C@@H](O)C4)c23)c(Cl)c1)c1cccc(-c2ccc(F)cc2)[n+]1[O-] [Final product 114]
0.8	10.9	6	O=C(Nc1ccc(Oc2ccnc3[nH]nc(N[C@H]4COC[C@@H]4O)c23)c(Cl)c1)c1cccc(-c2ccc(F)cc2)[n+]1[O-] [Final product 115]
4.6	28.7	10.7	C[C@H](CO)Nc1n[nH]c2nccc(Oc3ccc(NC(=O)c4cccc(-c5ccc(Cl)cc5)[n+]4[O-])cc3Cl)c12 [Final product 116]
18	30.2	9.8	O=C(Nc1ccc(Oc2ccnc3[nH]nc(N[C@H]4CC[C@@H](O)C4)c23)c(Cl)c1)c1ccc(F)c(-c2ccc(F)cc2)[n+]1[O-] [Final product 119]
1.3	17.6	14.5	O=C(Nc1ccc(Oc2ccnc3[nH]nc(N[C@H]4COC[C@@H]4O)c23)c(Cl)c1)c1ccc(F)c(-c2ccc(F)cc2)[n+]1[O-] [Final product 120]
1	30.1	10	O=C(Nc1ccc(Oc2ccnc3[nH]nc(N[C@H]4COC[C@@H]4O)c23)c(Cl)c1)c1ccc(Cl)c(-c2ccc(F)cc2)[n+]1[O-] [Final product 123]
0.6	21.1	8.8	Cc1ccc(C(=O)Nc2ccc(Oc3ccnc4[nH]nc(N[C@H]5COC[C@@H]5O)c34)c(Cl)c2)[n+]([O-])c1-c1ccc(F)cc1 [Final product 129]
3.3	15.5	28.3	[2H]C([2H])([2H])c1ccc(C(=O)Nc2ccc(Oc3ccnc4[nH]nc(N[C@H](C)CO)c34)c(Cl)c2)[n+]([O-])c1-c1ccc(F)cc1 [Final product 134]
1.9	26.3	33	C[C@H](CO)Nc1n[nH]c2nccc(Oc3ccc(NC(=O)c4ccc(OCC(F)F)c(-c5ccc(F)cc5)[n+]4[O-])cc3Cl)c12 [Final product 141]
18	45.1	33	C[C@H](CO)Nc1n[nH]c2nccc(Oc3ccc(NC(=O)c4ccc(OCC(F)(F)F)c(-c5ccc(F)cc5)[n+]4[O-])cc3Cl)c12 [Final product 142]
5.6	27.4	13.2	C[C@H](CO)Nc1n[nH]c2nccc(Oc3ccc(NC(=O)c4ccc(F)c(-c5ccc(F)cc5)[n+]4[O-])c(F)c3)c12 [Final product 155]
1.7	46.2	17.5	C[C@H](CO)Nc1n[nH]c2nccc(Oc3cc(F)c(NC(=O)c4ccc(Cl)c(-c5ccc(F)cc5)[n+]4[O-])cc3F)c12 [Final product 157]
2.5	29.4	15.9	C[C@H](CO)Nc1n[nH]c2nccc(Oc3cc(F)c(NC(=O)c4ccc(Cl)c(-c5ccc(F)cc5)[n+]4[O-])cc3Cl)c12 [Final product 158]
5.7	19.6	12.9	Cc1ccc(C(=O)Nc2ccc(Oc3ccnc4[nH]nc(N[C@H](C)CO)c34)cc2F)[n+]([O-])c1-c1ccc(F)cc1 [Final product 160]
1.8	6.9	2.1	C[C@H](CO)Cn1ccc2ncnc(Oc3ccc(NC(=O)c4cccc(-c5ccc(F)cc5)[n+]4[O-])cc3F)c21 [Final product 169, (S)-2-((3-fluoro-4-((5-(3-hydroxy-2-methylpropyl)-5H-pyrrolo[3,2-d]pyrimidin-4-yl)oxy)phenyl)carbamoyl)-6-(4-fluorophenyl)pyridine 1-oxide]
4.2	16.2	8.5	C[C@@H](CO)Cn1ccc2ncnc(Oc3ccc(NC(=O)c4cccc(-c5ccc(F)cc5)[n+]4[O-])cc3F)c21 [Final product 170, (R)-2-((3-fluoro-4-((5-(3-hydroxy-2-methylpropyl)-5H-pyrrolo[3,2-d]pyrimidin-4-yl)oxy)phenyl)carbamoyl)-6-(4-fluorophenyl)pyridine 1-oxide]

— patent US20250092033A1, “HETEROAROMATIC NITROGEN-OXIDE COMPOUND, PREPARATION METHOD THEREFOR, AND USE THEREOF” (BEIJING AVISTONE BIOTECHNOLOGY CO., LTD., priority 2021, published 2025)
